Results as given in patent US10618918B2, “Substituted boronic acids as antimicrobials” (priority 2015, dated 2020).

Tests used:
KP1086 OXA-48 = assay: Biapenem potentiation (MPC@1), strain KP1086 OXA-48; format: cell-based
Experimental: (§1) Biapenem was present in the test medium at 1 μg/mL. […] Table 3 summarizes the BLI potency of biapenem potentiation (MPC@1) for two strains overexpressing class A (KPC) and class D (OXA-48) carbapenemases. Biapenem MIC for each strain is also shown.

PAM1032/KPC-2 = assay: Biapenem potentiation MPC64 in PAM1032/KPC-2 (efflux proficient, overexpresses MexAB-OprM); format: cell-based, Pseudomonas aeruginosa; settings: Pseudomonas aeruginosa; P. aeruginosa PAM1032 expressing KPC-2; biapenem alone
Experimental: (§2) Efflux of BLIs from Pseudomonas aeruginosa by the MexAB-OprM efflux pump was also evaluated. The plasmid expressing the gene encoding KPC-2 was introduced into two strains of P. aeruginosa, PAM1032 and PAM 1154 that overexpressed or lacked MexAB-OprM, respectively. […] Potency of BLIs to potentiate biapenem in these strains was determined.

PAM1154/KPC-2 = assay: Biapenem potentiation MPC64 in PAM1154/KPC-2 (efflux deficient, lacks MexAB-OprM); format: cell-based, Pseudomonas aeruginosa; settings: Pseudomonas aeruginosa; P. aeruginosa PAM1154 expressing KPC-2; biapenem alone
Experimental: as §2

KP1004 KPC-2 [1] = assay: Biapenem potentiation (MPC@1), strain KP1004 KPC-2; format: cell-based
Experimental: as §1

AB1053 OXA-72 = assay: Meropenem potentiation (MPC@8), strain AB1053 OXA-72; format: cell-based, Acinetobacter baumannii; settings: minimum BLI concentration inhibiting growth with meropenem 8 μg/mL; tested up to 20 μg/mL
KP1010 SHV-12 = assay: Aztreonam potentiation (MPC@4), strain KP1010 SHV-12; settings: minimum BLI concentration inhibiting growth with aztreonam 4 μg/mL; tested up to 40 μg/mL
ECL1002 = assay: Aztreonam potentiation (MPC@4), strain ECL1002; settings: minimum BLI concentration inhibiting growth with aztreonam 4 μg/mL; tested up to 40 μg/mL
EC1010 CMY-6 = assay: Aztreonam potentiation (MPC@4), strain EC1010 CMY-6; settings: minimum BLI concentration inhibiting growth with aztreonam 4 μg/mL; tested up to 40 μg/mL
[2] = target: T1, purified class A, C and D enzymes (β-lactamases) (UniProt P0AD64, L31Q/G234S/E235K, species not given); assay: biochemical; format: biochemical; settings: read-out: Ki (SHV-12, NCF); purified SHV-12; nitrocefin (NCF) as reporter substrate
T1 construct: Ki (SHV-12, NCF), uM; other: purified SHV-12; nitrocefin (NCF) as reporter substrate
T1 sequence (P0AD64 1-286 L31Q/G234S/E235K): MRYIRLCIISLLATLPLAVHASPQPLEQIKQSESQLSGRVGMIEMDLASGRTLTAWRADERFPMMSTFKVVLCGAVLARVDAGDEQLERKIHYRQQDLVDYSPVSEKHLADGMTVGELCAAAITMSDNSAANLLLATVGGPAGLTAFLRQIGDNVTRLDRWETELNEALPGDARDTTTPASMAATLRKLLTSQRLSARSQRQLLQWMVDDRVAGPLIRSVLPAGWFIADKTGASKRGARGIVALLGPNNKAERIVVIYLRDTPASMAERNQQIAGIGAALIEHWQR

[3] = target: purified class A, C and D enzymes (β-lactamases) (Klebsiella pneumoniae, UniProt Q9F663); assay: biochemical; format: biochemical; settings: purified KPC-2; nitrocefin (NCF) as reporter substrate
[4] = target: T2, purified class A, C and D enzymes (β-lactamases) (Acinetobacter baumannii, UniProt Q9L4P2); assay: biochemical; format: biochemical; settings: purified OXA-23; nitrocefin (NCF) as reporter substrate
T2 construct: rows headed: Ki (OXA-23, NCF), uM; other: purified OXA-23; nitrocefin (NCF) as reporter substrate

[5] = target: purified class A, C and D enzymes (β-lactamases) (Escherichia coli, UniProt Q9L5C7); assay: biochemical; format: biochemical; settings: purified CTX-M-14; nitrocefin (NCF) as reporter substrate
[6] = target: purified class A, C and D enzymes (β-lactamases) (Enterobacter cloacae, UniProt P05364); assay: biochemical; format: biochemical
[7] = target: T3, purified class A, C and D enzymes (β-lactamases) (Pseudomonas aeruginosa, UniProt P24735); assay: biochemical; format: biochemical
T3 construct: rows headed: Ki (Pa-AmpC, NCF), uM; other: purified Pa-AmpC; nitrocefin (NCF) as reporter substrate

[8] = target: purified class A, C and D enzymes (β-lactamases) (Klebsiella pneumoniae, UniProt Q6XEC0); assay: biochemical; format: biochemical; settings: purified OXA-48; nitrocefin (NCF) as reporter substrate
ec308 SHV-5 = assay: Aztreonam potentiation (MPC@4), strain ec308 SHV-5; settings: minimum BLI concentration inhibiting growth with aztreonam 4 μg/mL; tested up to 40 μg/mL
KP1009 CTX-M-15 = assay: Aztreonam potentiation (MPC@4), strain KP1009 CTX-M-15; settings: minimum BLI concentration inhibiting growth with aztreonam 4 μg/mL; tested up to 40 μg/mL
AB1054 OXA-23 = assay: Meropenem potentiation (MPC@8), strain AB1054 OXA-23; format: cell-based, Acinetobacter baumannii; settings: minimum BLI concentration inhibiting growth with meropenem 8 μg/mL; tested up to 20 μg/mL
KP1004 KPC-2 [9] = assay: Aztreonam potentiation (MPC@4), strain KP1004 KPC-2; settings: minimum BLI concentration inhibiting growth with aztreonam 4 μg/mL; tested up to 40 μg/mL
KP1005 CTX-M-14 = assay: Tigemonam potentiation (MPC@4), strain KP1005 CTX-M-14; settings: minimum BLI concentration inhibiting growth with tigemonam 4 μg/mL; tested up to 40 μg/mL
ec302 TEM-10 = assay: Aztreonam potentiation (MPC@4), strain ec302 TEM-10; settings: minimum BLI concentration inhibiting growth with aztreonam 4 μg/mL; tested up to 40 μg/mL
[10] = minimum BLI concentration inhibiting growth with biapenem 1 μg/mL, tested up to 40 μg/mL

**Q.** For `C[C@@H](O)[C@H]1C(=O)N2C(C(=O)[O-])=C(SC3Cn4cnc[n+]4C3)[C@H](C)[C@H]12` (some centres unmarked) [Biapenem, reference compound], which MIC (KP1086 OXA-48; strain KP1086 OXA-48, biapenem alone) is on record?
**A.** 16 µg/mL

**Q.** What about the MIC (PAM1032/KPC-2) of the same molecule?
**A.** 32 µg/mL

**Q.** What about the MIC (PAM1154/KPC-2) of the same molecule?
**A.** 32 µg/mL

**Q.** And the MIC (KP1004 KPC-2 [1]; strain KP1004 KPC-2, biapenem alone)?
**A.** 32 µg/mL

**Q.** For `C#Cc1ccc2c(c1C(=O)[O-])O[B-](O)(O)CC2.[Na+].[Na+]` [Compound 18, Disodium; 8-ethynyl-4,4-dihydroxy-5-oxa-4-boranuidabicyclo[4.4.0]deca-1(6),7,9-triene-7-carboxylate], which “BPM MPC1 OXA-48 KP1086” value (KP1086 OXA-48; [10]) is on record?
**A.** X (X = MPC@1 ≤ 5 μg/mL)

**Q.** What about the “MPM MPC8 AB1053 OXA-72” value (AB1053 OXA-72) of the same molecule?
**A.** X (X = MPC@1 ≤ 5 μg/mL)

**Q.** What about the “AZT MPC4 SHV-12 KP1010” value (KP1010 SHV-12) of the same molecule?
**A.** X (X = MPC@4 ≤ 5 μg/mL)

**Q.** What about the “AZT MPC4 ECL1002” value (ECL1002) of the same molecule?
**A.** X (X = MPC@4 ≤ 5 μg/mL)

**Q.** And the “AZT MPC4 CMY-6 EC1010” value (EC1010 CMY-6)?
**A.** X (X = MPC@4 ≤ 5 μg/mL)

**Q.** And the Ki [2]?
**A.** < 100 nM

**Q.** What about the “Ki (KPC-2, NCF), uM” value [3] of the same molecule?
**A.** X (X = Ki ≤ 0.1 μM)

**Q.** What about the Ki [4] of the same molecule?
**A.** < 100 nM

**Q.** What about the “Ki (CTX-M-14, NCF), uM” value [5] of the same molecule?
**A.** X (X = Ki ≤ 0.1 μM)

**Q.** What about the “Ki (P99, NCF), uM” value [6] of the same molecule?
**A.** X (key: X = Ki ≤ 0.1 μM; Y = 0.1 μM < Ki ≤ 1 μM; Z = Ki > 1 μM)

**Q.** And the Ki [7]?
**A.** < 100 nM

**Q.** And the “Ki (OXA-48, NCF), uM” value [8]?
**A.** X (X = Ki ≤ 0.1 μM)

**Q.** What about the “AZT MPC4 SHV-5 ec308” value (ec308 SHV-5) of the same molecule?
**A.** X (X = MPC@4 ≤ 5 μg/mL)

**Q.** What about the “AZT MPC4 CTX-M-15 KP1009” value (KP1009 CTX-M-15) of the same molecule?
**A.** X (X = MPC@4 ≤ 5 μg/mL)

**Q.** And the “MPM MPC8 AB1054 OXA-23” value (AB1054 OXA-23)?
**A.** X (X = MPC@1 ≤ 5 μg/mL)

**Q.** And the “AZT MPC4 KPC-2 KP1004” value (KP1004 KPC-2 [9])?
**A.** X (X = MPC@4 ≤ 5 μg/mL)

**Q.** And the “BPM MPC1 KP1004 KPC-2” value (KP1004 KPC-2 [1]; [10])?
**A.** X (X = MPC@1 ≤ 5 μg/mL)

**Q.** And the “TIG MPC4 CTX-M-14 KP1005” value (KP1005 CTX-M-14)?
**A.** Z (Z = MPC@4 > 20 μg/mL)

**Q.** What about the “AZT MPC4 TEM-10 ec302” value (ec302 TEM-10) of the same molecule?
**A.** X (X = MPC@4 ≤ 5 μg/mL)
